Source: PubChem BioAssay AID1963445 (Molecular Pharmacology Branch, DTP, NCI, 2024)
One block for each compound: values may come before it.

System: MCF7 complex spheroid growth, % test/control
Assay: Anticancer human tumor MCF7 cell line growth inhibition [Asc];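 further: spheroids exposed to compounds for 7 days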;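 on viability, T/C: 100% = DMSO vehicle control wells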
Settings: for IC50: curve of first compound; for viability, T/C: stronger effect = lower value
Method: Multicellular complex tumor spheroid response to apoptosis pathway targeting inhibitors Alrizomadlin, Pelcitoclax, and Dasminapant in combination with a variety of drugs and investigational agents in selected tumor cell lines
The MDM2 inhibitor alrizomadlin, the Bcl-2/Bcl-xL inhibitor pelcitoclax, and the IAPs inhibitor dasminapant were evaluated both individually and in combination with standard of care and investigational anticancer small molecules within a complex spheroid model of solid tumors. . Complex spheroids include a stromal component modeled by human endothelial cells (HUVEC) and fibroblasts modeled by human mesenchymal stem cells (MSCs). The concentration ranges selected for each drug and investigational agent were based upon clinically achievable concentrations if the clinical Cmax of the agent was known.
Compounds. The drugs and investigational agents: alrizomadlin (APG-115; NSC831270), pelcitoclax (APG-1252; NSC835773), dasminapant (APG-1387;NSC834197), TAK-243 (NSC785004), copanlisib (NSC809693), olaparib (NSC753686), talazoparib (NSC767125), cobimetinib (NSC 768068), eltanexor (KPT-8602, NSC 794443), abemaciclib (NSC 768073), sotorasib (NSC818433), adagrasib (NSC 831453), MRTX-1133 (NSC 836407), Iadademestat (ORY1001, NSC 806812), and RMC-4630 (NSC839698), were obtained from the NCI Developmental Therapeutics Program Chemical Repository. The FDA-approved anticancer drug set is available from the Developmental Therapeutics Program at https://dtp.cancer.gov/organization/dscb/obtaining/available plates.htm. […] The stock solutions were prepared in dimethyl sulfoxide (DMSO, Sigma-Aldrich, St. Louis, MO, cat. D2650) at 800-fold the tested concentration and stored at -70 degrees C prior to their use. All drugs and investigational agents were tested over a range starting from a high concentration at or near the clinical Cmax and decreasing in half-log increments. If the clinical Cmax for an agent had not been determined, the highest concentration tested was 10 microM.
The patient-derived cancer (PDC) cell lines include five colon adenocarcinomas: 186277-243-T-J2-PDC, 616215-338-R-J1-PDC, 439559-082-T-J2-PDC, 463943-066-T-J2-PDC, and 519858-162-T-J1-PDC; three pancreatic carcinomas: 323965-272-R-J2-PDC, 521955-158-R6-J3-PDC, and 521955-158-R2-J5-PDC; two uterine sarcomas: 327498-152-R-J2-PDC and 993429-296-R-J1-PDC; two rhabdomyosarcomas: 755483-174-R-J1-PDC and 772245-204-R-J1-PDC; two soft tissue sarcomas: 126254-015-R-J1-PDC and 494315-158-R-J1-PDC; two malignant fibrous histiocytomas: 317291-083-R-J1-PDC and 596521-263-R-J1-PDC; two breast carcinomas: 171881-019-R-J1-PDC and 885512-296-R-J2-PDC; and one ovarian carcinoma: 6556581-035-R-J-PDC were obtained from the NCI PDMR, (https://pdmr.cancer.gov). The established cell lines HSSY-2 synovial sarcoma (RRID:CVCL 8719), SYO-1 synovial sarcoma (RRID:CVCL_7146), MPNST malignant peripheral neural sheath tumor were obtained from the Sloan Kettering Institute. The following established cell lines were purchased from the American Type Culture Collection (ATCC, Manassas, VA), Sor the received from the NCI repository:, PANC-1 pancreatic carcinoma (CRL-1469, RRID:CVCL_0480), OVCAR-5 ovarian carcinoma (RRID:CVCL_1628), OVCAR-8 ovarian carcinoma (RRID:CVCL_1629), , MCF-7 breast carcinoma (CRL-12584, RRID:CVCL_0031), MDA-MB-231 breast carcinoma (CRL-12532, RRID:CVCL_0062), NCI-H1876 small cell lung carcinoma (CRL-5902, RRID:CVCL_1503), NCI-H510A small cell lung carcinoma (HTB-184, RRID:CVCL_1565), NCI-H1417 (CRL-5869, RRID:CVCL_1469), and NCI-H196 small cell lung carcinoma (CRL-5823, RRID:CVCL_1509). Dr. Peter Houghton (Greehey Children's Cancer Research Institute, University of Texas Health Science Center, San Antonio, TX) provided Rh-18 rhabdomyosarcoma (RRID:CVCL_1659). Pooled donor human umbilical vein endothelial cells (HUVEC, Lonza, cat. CC-2519) and human mesenchymal stem cells (hMSC, Lonza, cat. PT-2501) were purchased from Lonza (Walkersville, MD).
Cell Culture. […]

- IC50 (second compound 0.00949 µM): 4.89 nM
- IC50 (second compound 0.03 µM): 4.19 nM
- IC50 (second compound 0.0949 µM): < 3.16 nM
- IC50 (second compound 0.3 µM): < 3.16 nM
- IC50 (second compound 0.949 µM): < 3.16 nM
- IC50 (second compound 3 µM): < 3.16 nM
SMILES: CNC(C)C(=O)NC1CN(S(=O)(=O)c2cccc(S(=O)(=O)N3CCC4CCC(C(=O)NC(c5ccccc5)c5ccccc5)N4C(=O)C(NC(=O)C(C)NC)C3)c2)CCC2CCC(C(=O)NC(c3ccccc3)c3ccccc3)N2C1=O (centres undefined) + CCN1C(C(=O)NC23CCC(C(=O)O)(CC2)CC3)C(c2cccc(Cl)c2F)C2(C(=O)Nc3cc(Cl)ccc32)C12CCCCC2
- viability, T/C (second compound 0.00949 µM, first compound 0.00316 µM): 69.8%
- viability, T/C (second compound 0.00949 µM, first compound 0.01 µM): 17.4%
- viability, T/C (second compound 0.00949 µM, first compound 0.0316 µM): 16.6%
- viability, T/C (second compound 0.00949 µM, first compound 0.1 µM): 14.7%
- viability, T/C (second compound 0.00949 µM, first compound 0.316 µM): 17.1%
- viability, T/C (second compound 0.00949 µM, first compound 1 µM): 15.5%
- viability, T/C (second compound 0.03 µM, first compound 0.00316 µM): 61.2%
- viability, T/C (second compound 0.03 µM, first compound 0.01 µM): 13.8%
- viability, T/C (second compound 0.03 µM, first compound 0.0316 µM): 13.1%
- viability, T/C (second compound 0.03 µM, first compound 0.1 µM): 19%
- viability, T/C (second compound 0.03 µM, first compound 0.316 µM): 15.5%
- viability, T/C (second compound 0.03 µM, first compound 1 µM): 15.8%
- viability, T/C (second compound 0.0949 µM, first compound 0.00316 µM): 32.7%
- viability, T/C (second compound 0.0949 µM, first compound 0.01 µM): 8.77%
- viability, T/C (second compound 0.0949 µM, first compound 0.0316 µM): 9.56%
- viability, T/C (second compound 0.0949 µM, first compound 0.1 µM): 11.9%
- viability, T/C (second compound 0.0949 µM, first compound 0.316 µM): 11.5%
- viability, T/C (second compound 0.0949 µM, first compound 1 µM): 16%
- viability, T/C (second compound 0.3 µM, first compound 0.00316 µM): 15.1%
- viability, T/C (second compound 0.3 µM, first compound 0.01 µM): 8.53%
- viability, T/C (second compound 0.3 µM, first compound 0.0316 µM): 9.64%
- viability, T/C (second compound 0.3 µM, first compound 0.1 µM): 9.86%
- viability, T/C (second compound 0.3 µM, first compound 0.316 µM): 11%
- viability, T/C (second compound 0.3 µM, first compound 1 µM): 12.2%
- viability, T/C (second compound 0.949 µM, first compound 0.00316 µM): 10.9%
- viability, T/C (second compound 0.949 µM, first compound 0.01 µM): 10%
- viability, T/C (second compound 0.949 µM, first compound 0.0316 µM): 7.29%
- viability, T/C (second compound 0.949 µM, first compound 0.1 µM): 8.83%
- viability, T/C (second compound 0.949 µM, first compound 0.316 µM): 10.5%
- viability, T/C (second compound 0.949 µM, first compound 1 µM): 12%
- viability, T/C (second compound 3 µM, first compound 0.00316 µM): 11.6%
- viability, T/C (second compound 3 µM, first compound 0.01 µM): 9.65%
- viability, T/C (second compound 3 µM, first compound 0.0316 µM): 9.98%
- viability, T/C (second compound 3 µM, first compound 0.1 µM): 9.21%
- viability, T/C (second compound 3 µM, first compound 0.316 µM): 12.1%
- viability, T/C (second compound 3 µM, first compound 1 µM): 12.5%

- IC50 (second compound 0.00316 µM): < 0.949 nM
- IC50 (second compound 0.01 µM): < 0.949 nM
- IC50 (second compound 0.0316 µM): < 0.949 nM
- IC50 (second compound 0.1 µM): < 0.949 nM
- IC50 (second compound 0.316 µM): < 0.949 nM
- IC50 (second compound 1 µM): < 0.949 nM
SMILES: NC(=O)C(=Cn1cnc(-c2cc(C(F)(F)F)cc(C(F)(F)F)c2)n1)c1cncnc1 + CNC(C)C(=O)NC1CN(S(=O)(=O)c2cccc(S(=O)(=O)N3CCC4CCC(C(=O)NC(c5ccccc5)c5ccccc5)N4C(=O)C(NC(=O)C(C)NC)C3)c2)CCC2CCC(C(=O)NC(c3ccccc3)c3ccccc3)N2C1=O
- viability, T/C (second compound 0.00316 µM, first compound 0.000949 µM): 38.3%
- viability, T/C (second compound 0.00316 µM, first compound 0.003 µM): 35.7%
- viability, T/C (second compound 0.00316 µM, first compound 0.00949 µM): 23.6%
- viability, T/C (second compound 0.00316 µM, first compound 0.03 µM): 16.3%
- viability, T/C (second compound 0.00316 µM, first compound 0.0949 µM): 15.7%
- viability, T/C (second compound 0.00316 µM, first compound 0.3 µM): 19.8%
- viability, T/C (second compound 0.01 µM, first compound 0.000949 µM): 17.5%
- viability, T/C (second compound 0.01 µM, first compound 0.003 µM): 12.1%
- viability, T/C (second compound 0.01 µM, first compound 0.00949 µM): 11.6%
- viability, T/C (second compound 0.01 µM, first compound 0.03 µM): 14.1%
- viability, T/C (second compound 0.01 µM, first compound 0.0949 µM): 17.8%
- viability, T/C (second compound 0.01 µM, first compound 0.3 µM): 16.7%
- viability, T/C (second compound 0.0316 µM, first compound 0.000949 µM): 17.1%
- viability, T/C (second compound 0.0316 µM, first compound 0.003 µM): 12.9%
- viability, T/C (second compound 0.0316 µM, first compound 0.00949 µM): 13.1%
- viability, T/C (second compound 0.0316 µM, first compound 0.03 µM): 17%
- viability, T/C (second compound 0.0316 µM, first compound 0.0949 µM): 19%
- viability, T/C (second compound 0.0316 µM, first compound 0.3 µM): 20.2%
- viability, T/C (second compound 0.1 µM, first compound 0.000949 µM): 14.6%
- viability, T/C (second compound 0.1 µM, first compound 0.003 µM): 14.6%
- viability, T/C (second compound 0.1 µM, first compound 0.00949 µM): 13.7%
- viability, T/C (second compound 0.1 µM, first compound 0.03 µM): 14.3%
- viability, T/C (second compound 0.1 µM, first compound 0.0949 µM): 22.9%
- viability, T/C (second compound 0.1 µM, first compound 0.3 µM): 22.2%
- viability, T/C (second compound 0.316 µM, first compound 0.000949 µM): 12.9%
- viability, T/C (second compound 0.316 µM, first compound 0.003 µM): 16%
- viability, T/C (second compound 0.316 µM, first compound 0.00949 µM): 14.4%
- viability, T/C (second compound 0.316 µM, first compound 0.03 µM): 14.5%
- viability, T/C (second compound 0.316 µM, first compound 0.0949 µM): 22.4%
- viability, T/C (second compound 0.316 µM, first compound 0.3 µM): 23.7%
- viability, T/C (second compound 1 µM, first compound 0.000949 µM): 13.9%
- viability, T/C (second compound 1 µM, first compound 0.003 µM): 16%
- viability, T/C (second compound 1 µM, first compound 0.00949 µM): 13.9%
- viability, T/C (second compound 1 µM, first compound 0.03 µM): 16.6%
- viability, T/C (second compound 1 µM, first compound 0.0949 µM): 18.5%
- viability, T/C (second compound 1 µM, first compound 0.3 µM): 22.3%
